The source of these data is US10870638B2, “Pyridazinone compound or its salt, and herbicide containing it” (ISHIHARA SANGYO KAISHA, LTD., priority 2016, dated 2020).

Common to all, as to format: in vivo
What all share (conditions): active ingredient amount 31 g/ha, 14th day after application

Experiment [1] deals with barnyardgrass (Echinochloa crus-qalli L.). The experiment can be described thus: Test Example 1: foliar treatment, growth inhibition rate on 14th day. The method, boiled down:
(§1)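 Visual 0–100% inhibition scoring (100 = complete kill) at 14 days after foliar treatment of soil-grown seedlings at species-specific leaf stages, with the compound sprayed as a wettable powder or emulsifiable concentrate dilution.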

Experiment [2] has as its system corn (Zea mays L.). The experiment is described as above. In short, it runs like this: as §1
Experiment [3] relates to crabgrass (Digitaria sanquinalis L.). The description is as above. In short, it runs like this:
as §1

For experiment [4], the system named is green foxtail (Setaria viridis L.). The description is as above. In short, it runs like this: (§2)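 Growth inhibition rates (%) come from visual observation on the 14th day following a single foliar application. Soybean was sprayed at the primary leaf stage, rice at 0.2–2.7 leaves, wild oat at 0.4–1.2, green foxtail at 0.5–3.2.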
In experiment [5] the test system is italian ryegrass (Lolium multiflorum Lam.). The description is as above. In short, it runs like this:
as §1

The subject of experiment [6] is redroot pigweed (Amaranthus retroflexus L.). The experiment is described as above. The method, boiled down: as §1
For experiment [7], the system named is rice (Oryza sativa L.). The experiment is described as above. In short, it runs like this: as §2
Experiment [8] has as its system soybean (Glycine max Merr.). The description is as above. In short, it runs like this:
as §2

For experiment [9], the system named is wheat (Triticum aestivum L.). The experiment is described as above. In short, it runs like this: as §1
Experiment [10] has as its system wild oat (Avena fatua L.). The description is as above. The method, boiled down: as §2
Experiment [11] relates to barnyardgrass (Echinochloa crus-qalli L.). Kind of experiment: Test Example 2: soil application on the day after sowing, growth inhibition rate on 14th day. The method, boiled down: (§3)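 Pre-emergence soil spray, day after sowing; WP or EC formulations diluted to 1,000 L/ha water at set a.i. rates. Visual growth inhibition %, 0 = untreated, 100 = complete kill, read at day 14.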

For experiment [12], the system named is corn (Zea mays L.). Described as above. In short, it runs like this: as §3
Experiment [13] relates to crabgrass (Digitaris sanquinalis L.). The experiment is described as above. In short, it runs like this:
as §3

Experiment [14] has as its system green foxtail (Setaria viridis L.). Described as above. In short, it runs like this:
as §3

The subject of experiment [15] is prickly sida (Sida spinosa L.). Described as above. The method, boiled down:
as §3

The subject of experiment [16] is redroot pigweed (Amaranthus retroflexus L.). The experiment is described as above. In short, it runs like this:
as §3

The subject of experiment [17] is rice (Oryza sativa L.). The description is as above. The method, boiled down: as §3
The test system of experiment [18] is soybean (Glycine max Merr.). The experiment is described as above. The method, boiled down: as §3
The subject of experiment [19] is velvetleaf (Abutilon theophrasti MEDIC.). The description is as above. The method, boiled down:
as §3

In experiment [20] the test system is wheat (Triticum aestivum L.). Described as above. The method, boiled down:
as §3

Take `CCn1nc(C)c(OC(C)=O)c(-c2cc(Oc3ncc(C(F)(F)F)cc3Cl)ccc2C)c1=O` [1-165]: the results for the “Growth inhibition rate (%) Barnyardgrass” value in experiment [1] and in experiment [11] were 100% and 99%, respectively. In addition, the “Growth inhibition rate (%) Corn” value in the experiment with corn (Zea mays L.) [2] is 100%; with corn (Zea mays L.) [12], 0%. For the same compound, the “Growth inhibition rate (%) Crabgrass” value in [3] and in experiment [13] was 100% in each case. The “Growth inhibition rate (%) Green foxtail” value is 100% in [4] and 95% in experiment [14]. Also, the “Growth inhibition rate (%) Italian ryegrass” value in [5] was found to be 100%. Also, the “Growth inhibition rate (%) Redroot pigweed” value in experiment [6] and in [16] was 0% in each case. For the same compound, the “Growth inhibition rate (%) Rice” value with rice (Oryza sativa L.) [7] was 83%; in the experiment on rice (Oryza sativa L.) [17], 0%. Further, the “Growth inhibition rate (%) Soybean” value in experiment [8] and in [18] was 0% throughout. Besides, the “Growth inhibition rate (%) Wheat” value in [9] came out at 95%; in experiment [20], 0%. In experiment [10], the “Growth inhibition rate (%) Wild oat” value was found to be 100%. In addition, the “Growth inhibition rate (%) Prickly sida” value in [15] worked out at 0%. In addition, the “Growth inhibition rate (%) Velvetleaf” value in [19] came to 0%.

Consider `CCc1ccc(Oc2nc3ccc(Cl)cc3o2)cc1-c1c(OC(C)=O)cnn(C)c1=O` [Compound 2-160], for which the “Growth inhibition rate (%) Barnyardgrass” value in [1] and in experiment [11] was 100% throughout. The “Growth inhibition rate (%) Corn” value in the experiment with corn (Zea mays L.) [2] is on record as 100%; in the experiment on corn (Zea mays L.) [12] it was 0%. In addition, the “Growth inhibition rate (%) Crabgrass” value worked out at 100% in experiment [3] and 99% in experiment [13]. Further, the “Growth inhibition rate (%) Green foxtail” value in experiment [4] and in experiment [14] was 100% each time. For the same compound, the “Growth inhibition rate (%) Italian ryegrass” value in experiment [5] stood at 100%. For the same compound, the entries for the “Growth inhibition rate (%) Redroot pigweed” value in experiment [6] and in experiment [16] were 0% and 95%, respectively. In addition, the “Growth inhibition rate (%) Rice” value amounted to 100% in the experiment with rice (Oryza sativa L.) [7] and 0% in the experiment on rice (Oryza sativa L.) [17]. In addition, the “Growth inhibition rate (%) Soybean” value in experiment [8] came to 30%; in [18], 0%. Further, the “Growth inhibition rate (%) Wheat” value is given as 99% in experiment [9] and 0% in experiment [20]. Moreover, the “Growth inhibition rate (%) Wild oat” value in [10] was 100%. Also, the “Growth inhibition rate (%) Prickly sida” value in [15] is 50%. In experiment [19], the “Growth inhibition rate (%) Velvetleaf” value is 0%.

With `CC(=O)Oc1c(C)nn(C)c(=O)c1-c1cc(Oc2nc3ccc(Br)cc3s2)ccc1C` [Compound 2-158], the “Growth inhibition rate (%) Barnyardgrass” value in experiment [1] stood at 100%; in [11], 80%. Further, the entries for the “Growth inhibition rate (%) Corn” value with corn (Zea mays L.) [2] and in the experiment on corn (Zea mays L.) [12] were 0% and 10%, respectively. Also, the “Growth inhibition rate (%) Crabgrass” value turned out to be 93% in experiment [3] and 70% in experiment [13]. The results for the “Growth inhibition rate (%) Green foxtail” value in experiment [4] and in [14] were 98% and 95%, respectively. The “Growth inhibition rate (%) Italian ryegrass” value in [5] came to 65%. Further, the “Growth inhibition rate (%) Redroot pigweed” value in experiment [6] and in experiment [16] was 0% in each case. The “Growth inhibition rate (%) Rice” value with rice (Oryza sativa L.) [7] was 60%; with rice (Oryza sativa L.) [17], 0%. For the same compound, the “Growth inhibition rate (%) Soybean” value in experiment [8] and in experiment [18] was 0% in each case. The figures for the “Growth inhibition rate (%) Wheat” value in experiment [9] and in experiment [20] were 93% and 0%, respectively. Also, the “Growth inhibition rate (%) Wild oat” value in experiment [10] came out at 65%. Moreover, the “Growth inhibition rate (%) Prickly sida” value in experiment [15] came out at 0%. Also, in experiment [19], the “Growth inhibition rate (%) Velvetleaf” value is on record as 0%.

On to `CC(=O)Oc1cnn(C(C)C)c(=O)c1-c1cc(Oc2nc3ccc(Cl)cc3o2)ccc1C` [Compound 2-172], for which the “Growth inhibition rate (%) Barnyardgrass” value in [1] was determined as 100%; in experiment [11], 60%. Besides, the “Growth inhibition rate (%) Corn” value with corn (Zea mays L.) [2] is reported as 98%; in the experiment on corn (Zea mays L.) [12], 0%. The “Growth inhibition rate (%) Crabgrass” value is 98% in experiment [3] and 30% in [13]. The results for the “Growth inhibition rate (%) Green foxtail” value in experiment [4] and in experiment [14] were 99% and 20%, respectively. In experiment [5], the “Growth inhibition rate (%) Italian ryegrass” value stood at 35%. In addition, the “Growth inhibition rate (%) Redroot pigweed” value in [6] and in [16] was 0% throughout. Moreover, the “Growth inhibition rate (%) Rice” value came to 30% with rice (Oryza sativa L.) [7] and 0% in the experiment on rice (Oryza sativa L.) [17]. In addition, the entries for the “Growth inhibition rate (%) Soybean” value in experiment [8] and in experiment [18] were 40% and 0%, respectively. Further, the figures for the “Growth inhibition rate (%) Wheat” value in experiment [9] and in experiment [20] were 10% and 0%, respectively. In [10], the “Growth inhibition rate (%) Wild oat” value was found to be 40%. Moreover, the “Growth inhibition rate (%) Prickly sida” value in experiment [15] came out at 0%. The “Growth inhibition rate (%) Velvetleaf” value in experiment [19] is 0%.

On to `Cc1ccc(Oc2cnc(C(F)(F)F)cn2)cc1-c1c(O)c(C)nn(C)c1=O` [Compound 2-194], for which the “Growth inhibition rate (%) Barnyardgrass” value is 85% in experiment [1] and 95% in [11]. Besides, the “Growth inhibition rate (%) Corn” value is reported as 60% with corn (Zea mays L.) [2] and 40% in the experiment on corn (Zea mays L.) [12]. Also, the “Growth inhibition rate (%) Crabgrass” value is 90% in experiment [3] and 83% in experiment [13]. Further, the “Growth inhibition rate (%) Green foxtail” value in [4] was determined as 90%; in [14] it was 99%. Also, the “Growth inhibition rate (%) Italian ryegrass” value in experiment [5] turned out to be 35%. In addition, the “Growth inhibition rate (%) Redroot pigweed” value in experiment [6] and in experiment [16] was 0% throughout. For the same compound, the “Growth inhibition rate (%) Rice” value with rice (Oryza sativa L.) [7] is 0%; with rice (Oryza sativa L.) [17], 30%. The entries for the “Growth inhibition rate (%) Soybean” value in experiment [8] and in [18] were 10% and 0%, respectively. In addition, the “Growth inhibition rate (%) Wheat” value in experiment [9] and in experiment [20] was 0% throughout. Moreover, the “Growth inhibition rate (%) Wild oat” value in experiment [10] was determined as 10%. Also, the “Growth inhibition rate (%) Prickly sida” value in [15] was 0%. In addition, the “Growth inhibition rate (%) Velvetleaf” value in experiment [19] is given as 0%.

As to `CC(=O)Oc1c(C)nn(C)c(=O)c1-c1cc(Oc2ncc(C(F)(F)F)cc2C(F)(F)F)ccc1C` [Compound 2-116], the “Growth inhibition rate (%) Barnyardgrass” value in experiment [1] and in experiment [11] was 100% throughout. In addition, the “Growth inhibition rate (%) Corn” value was 100% with corn (Zea mays L.) [2] and 85% in the experiment on corn (Zea mays L.) [12]. In addition, the “Growth inhibition rate (%) Crabgrass” value in experiment [3] and in experiment [13] was 100% each time. Besides, the “Growth inhibition rate (%) Green foxtail” value in experiment [4] and in experiment [14] was 100% each time. In addition, the “Growth inhibition rate (%) Italian ryegrass” value in [5] is 100%. Besides, the “Growth inhibition rate (%) Redroot pigweed” value in [6] and in experiment [16] was 0% in each case. In addition, the “Growth inhibition rate (%) Rice” value turned out to be 90% in the experiment with rice (Oryza sativa L.) [7] and 0% in the experiment with rice (Oryza sativa L.) [17]. The “Growth inhibition rate (%) Soybean” value in experiment [8] is 10%; in experiment [18] it was 0%. For the same compound, the “Growth inhibition rate (%) Wheat” value came to 99% in [9] and 60% in experiment [20]. For the same compound, the “Growth inhibition rate (%) Wild oat” value in [10] came out at 100%. Moreover, in [15], the “Growth inhibition rate (%) Prickly sida” value was determined as 0%. Also, the “Growth inhibition rate (%) Velvetleaf” value in [19] is on record as 0%.

As for `CCOC(=O)Oc1c(C)nn(C)c(=O)c1-c1cc(Oc2ncc(C(F)(F)F)cc2Cl)ccc1C` [1-41], the “Growth inhibition rate (%) Barnyardgrass” value in [1] and in experiment [11] was 100% throughout. Moreover, the “Growth inhibition rate (%) Corn” value came to 98% in the experiment on corn (Zea mays L.) [2] and 20% in the experiment on corn (Zea mays L.) [12]. Further, the “Growth inhibition rate (%) Crabgrass” value in experiment [3] is 99%; in experiment [13] it was 100%. The “Growth inhibition rate (%) Green foxtail” value in experiment [4] and in experiment [14] was 100% in each case. The “Growth inhibition rate (%) Italian ryegrass” value in experiment [5] is given as 100%. Also, the figures for the “Growth inhibition rate (%) Redroot pigweed” value in [6] and in experiment [16] were 10% and 0%, respectively. Also, the “Growth inhibition rate (%) Rice” value in the experiment with rice (Oryza sativa L.) [7] was determined as 80%; in the experiment on rice (Oryza sativa L.) [17] it was 0%. The “Growth inhibition rate (%) Soybean” value in experiment [8] and in experiment [18] was 0% in each case. The “Growth inhibition rate (%) Wheat” value turned out to be 98% in experiment [9] and 0% in [20]. In addition, in experiment [10], the “Growth inhibition rate (%) Wild oat” value came out at 99%. For the same compound, in experiment [15], the “Growth inhibition rate (%) Prickly sida” value was 0%. The “Growth inhibition rate (%) Velvetleaf” value in experiment [19] is given as 0%.
